Results: patent US20220002333A1, “CRYSTALLINE FORM A OF 2'-FLUORO-4'-SUBSTITUTED NUCLEOSIDE ANALOGUE I AND PREPARATION METHOD AND APPLICATION THEREOF” (Henan Genuine Biotech Co., Ltd., priority 2019, published 2022)
Read-outs that look alike come from different tables or passages of the source.

What was measured:
[1] = tested on: leukemia; experiment: Anticancer activity on leukemia
Experimental: (§1) The anticancer activity of the crystalline form A of the compound I on B-cell non-Hodgkin lymphoma, lung cancer, gastric cancer, colorectal cancer and leukemia was determined according to the literature method (Wang, Q. et al Biochemical Pharmacology 2011, 81, 848; Asian Pacific Journal of Cancer Prevention 2014, 15, 6829).

[2] = tested on: B-cell non-Hodgkin's lymphoma; experiment: Anticancer activity on B-cell non-Hodgkin's lymphoma
Experimental: The anticancer (non-Hodgkin's lymphoma) activity of the crystalline form A of the compound I was determined according to the literature method (Asian Pacific Journal of cancer prevention 2014, 15, 6829).
as §1

[3] = tested on: lung cancer; experiment: Anticancer activity on lung cancer
Experimental: as §1

[4] = tested on: T-cell lymphoma; experiment: Anti-T-cell lymphoma activity in patient-derived tumor xenografts (PDX) mouse model; format: in vivo
Experimental: The inhibitory effect of the crystalline form A of the compound I on T-cell lymphoma was determined by patient-derived tumor xenograft (PDX).
After the patient's T-cell lymphoid carcinoma tissue was sampled, the tissue was transferred to a specific pathogen free (SPF) animal room through a transfer window. In a super clean table, phosphate buffered saline (PBS) buffer with double antibodies, Dulbecco's modified eagle medium (DMEM) medium, Petri dish and ice bag were prepared. An appropriate amount of PBS and DMEM were poured to the Petri dishes on ice. The tissue was taken out and put into PBS for preliminary cleaning, and necrotic and normal tissue was removed. The tissue in PBS was transferred to DMEM. The remaining tissue was cut into small pieces of 20-30 mm^3 patches, which were transplanted into the armpit and back of mice with puncture needles. Each mouse was inoculated with the tissue on one site. The tumors of the inoculated mice were taken out regularly, photographed, and the volume changes thereof were compared (see FIG. 9).

[5] = Stability evaluation of crystalline forms under high temperature, high humidity and light (XRPD); format: physicochemical; details: for Stability of crystalline form under high humidity: 40° C. and 75% humidity for five and ten days; for Stability of crystalline form under high temperature: 60° C. for five days and ten days; for Stability in stability evaluation (overall): high temperature, high humidity and light
Experimental: The crystalline forms of the compound were systematically screened by means of unitary method, binary method, cooling, dissolution (positive and negative), diffusion and so on, and two crystalline forms were found: crystalline form A and amorphous crystalline form B. The stabilities of the crystalline form A and the crystalline form B under high temperature, high humidity and light were evaluated respectively. […] These experimental conditions were as follows: the high temperature condition is 60° C. for five days and ten days; the high humidity condition is 40° C. and 75% humidity for five and ten days; the light conditions were 4500 lux for five and ten days.

[6] = Static electricity and mixing uniformity with excipients / content of compound I in tablets; format: physicochemical; details: for Drug content for each tablet: 10 tablets arbitrarily selected, average 1 mg compound I and 149 mg excipients per 150 mg tablet; for Static: solid compound I
Experimental: After 10 days of storage at 40° C./75% humidity, 80-90% of the solid compound I with amorphous form B is gradually transformed into stable crystalline form A. The compound of crystalline form A is a loose solid. Because the dosage of the compound I for adults with AIDS is only 1-3 mg per day, which is a low amount, the uniform mixing of the compound with an excipient is crucial to ensure the anti HIV effect of the drug.

[7] = listed as sheet amorphous solid B

Row | Compound | Inhibitory effect on leukemia [1] | Inhibitory effect on B-cell non-Hodgkin's lymphoma [2] | Inhibitory effect on lung cancer [3] | Inhibition of growth of T-cell lymphoma ([4]; dose 2 mg/kg) | Inhibition of growth of T-cell lymphoma ([4]; dose 4 mg/kg) | Inhibition of growth of T-cell lymphoma ([4]; dose 8 mg/kg) | Stability of crystalline form under high humidity [5] | Stability of crystalline form under high temperature [5] | Stability in stability evaluation (overall) [5] | Mixing with excipients [6] | Drug content for each tablet [6] | Static [6] | Static ([6]; listed as Crystalline form) | Portion of solid transformed into stable crystalline form A ([5]; after 10 days of storage at 40° C./75% humidity) | Drug content for each tablet ([6]; listed as Amorphous B) | Mixing with excipients [6, 7] | Static ([6]; listed as Amorphous B) | Static [6, 7]
1 | [N-]=[N+]=N[C@]1(CO)O[C@@H](n2ccc(N)nc2=O)[C@@H](F)[C@@H]1O [compound I, 2′-fluoro-4′-substituted nucleoside analogue I] | significant inhibitory effects | significant inhibitory effects | significant inhibitory effects | – | – | – | – | – | – | – | – | – | – | – | – | – | – | –
2 | [N-]=[N+]=N[C@]1(CO)O[C@@H](n2ccc(N)nc2=O)[C@@H](F)[C@@H]1O [crystalline form A, 2′-fluoro-4′-substituted nucleoside analogue I] | – | – | – | significantly inhibit | significantly inhibit | significantly inhibit | stable | stable | good stability | easy to mix evenly with excipients | 0.95 to 1.05 mg | no static electricity | No | – | – | – | – | –
3 | [N-]=[N+]=N[C@]1(CO)O[C@@H](n2ccc(N)nc2=O)[C@@H](F)[C@@H]1O [crystalline form B, 2′-fluoro-4′-substituted nucleoside analogue I] | – | – | – | – | – | – | gradually transformed into crystalline form A | gradually transformed into crystalline form A | generally stable | – | – | – | – | 80-90% | 0.5 to 1.5 mg | not easy to mix evenly with excipients | Yes | obvious static electricity
